What all share (assay): relative viability (nuclei count vs DMSO), 5 days (fraction); higher = more cells survive
Compound in the experiment “BAY61-3606 + Luminespib”: COC1=C(C=C(C=C1)C2=CC3=NC=CN3C(=N2)NC4=C(C=CC=N4)C(=O)N)OC [BAY61-3606] + CCNC(=O)c1noc(-c2cc(C(C)C)c(O)cc2O)c1-c1ccc(CN2CCOCC2)cc1 [Luminespib] (partner 0.01 µM)
The essentials:
(§1)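 Each reported value is a median over duplicate plates. It expresses relative viability: treated-well nuclei count divided by vehicle-well nuclei count. Lung cancer cell lines in 1536-well plates were dosed by pin tool a day after seeding, alone with one drug or with a fixed anchor-drug dose plus five library-drug doses (not always all listed) in √10 steps, and nuclei were counted after 5 days.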

Compound in the experiment “BAY61-3606 + Decitabine”: COC1=C(C=C(C=C1)C2=CC3=NC=CN3C(=N2)NC4=C(C=CC=N4)C(=O)N)OC [BAY61-3606] + Nc1ncn([C@H]2C[C@H](O)[C@@H](CO)O2)c(=O)n1 [Decitabine] (partner 2 µM)
The gist of the method: as §1

Compound in the experiment “BAY61-3606 + Phenformin”: COC1=C(C=C(C=C1)C2=CC3=NC=CN3C(=N2)NC4=C(C=CC=N4)C(=O)N)OC [BAY61-3606] + N=C(N)NC(=N)NCCc1ccccc1 [Phenformin] (partner 250 µM)
The essentials: as §1

Compound in the experiment “Doxorubicin + Linsitinib”: COc1cccc2c1C(=O)c1c(O)c3c(c(O)c1C2=O)C[C@@](O)(C(=O)CO)C[C@@H]3O[C@H]1C[C@H](N)[C@H](O)[C@H](C)O1 [Doxorubicin] + C[C@]1(O)C[C@@H](c2nc(-c3ccc4ccc(-c5ccccc5)nc4c3)c3c(N)nccn32)C1 [Linsitinib] (partner 1 µM)
The gist of the method: as §1

Turning to LU99A, the relative viability with BAY61-3606 + Luminespib (first compound 0.02 µM) is 0.347; in the experiment with BAY61-3606 + Luminespib (first compound 0.06325 µM), 0.256; with BAY61-3606 + Luminespib (first compound 0.2 µM), 0.407; with BAY61-3606 + Luminespib (first compound 0.6325 µM) it was 0.248; in the experiment with BAY61-3606 + Luminespib (first compound 2 µM) it was 0.209; with BAY61-3606 + Decitabine (first compound 0.02 µM), 0.926. The relative viability with BAY61-3606 + Decitabine (first compound 0.06325 µM) worked out at 1.01; in the experiment with BAY61-3606 + Decitabine (first compound 0.2 µM) it was 0.966; with BAY61-3606 + Decitabine (first compound 0.6325 µM) it was 0.804; with BAY61-3606 + Decitabine (first compound 2 µM) it was 0.559; with BAY61-3606 + Phenformin (first compound 0.02 µM), 0.938; in the experiment with BAY61-3606 + Phenformin (first compound 0.06325 µM) it was 0.759. Also, the relative viability amounted to 0.735 in the experiment with BAY61-3606 + Phenformin (first compound 0.2 µM); 0.755 in the experiment with BAY61-3606 + Phenformin (first compound 0.6325 µM); 0.708 with BAY61-3606 + Phenformin (first compound 2 µM); 0.521 in the experiment with Doxorubicin + Linsitinib (first compound 0.001 µM); 0.645 with Doxorubicin + Linsitinib (first compound 0.003162 µM); 0.526 with Doxorubicin + Linsitinib (first compound 0.01 µM). Also, the figures for the relative viability with Doxorubicin + Linsitinib (first compound 0.03162 µM) and with Doxorubicin + Linsitinib (first compound 0.1 µM) were 0.456 and 0.575, respectively.
Turning to NCI-H2347, the relative viability came out at 0.373 in the experiment with BAY61-3606 + Luminespib (first compound 0.02 µM); 0.362 with BAY61-3606 + Luminespib (first compound 0.06325 µM); 0.386 in the experiment with BAY61-3606 + Luminespib (first compound 0.2 µM); 0.658 in the experiment with BAY61-3606 + Luminespib (first compound 0.6325 µM); 0.412 in the experiment with BAY61-3606 + Luminespib (first compound 2 µM); 0.731 with BAY61-3606 + Decitabine (first compound 0.02 µM). For the same cell line, the relative viability in the experiment with BAY61-3606 + Decitabine (first compound 0.06325 µM) was 0.63; in the experiment with BAY61-3606 + Decitabine (first compound 0.2 µM), 0.599; in the experiment with BAY61-3606 + Decitabine (first compound 0.6325 µM), 0.698; with BAY61-3606 + Decitabine (first compound 2 µM), 0.666; with BAY61-3606 + Phenformin (first compound 0.02 µM), 0.563; with BAY61-3606 + Phenformin (first compound 0.06325 µM) it was 0.359. Besides, the relative viability was found to be 0.544 with BAY61-3606 + Phenformin (first compound 0.2 µM); 0.455 with BAY61-3606 + Phenformin (first compound 0.6325 µM); 0.538 in the experiment with BAY61-3606 + Phenformin (first compound 2 µM); 0.978 with Doxorubicin + Linsitinib (first compound 0.001 µM); 0.923 with Doxorubicin + Linsitinib (first compound 0.003162 µM); 0.923 with Doxorubicin + Linsitinib (first compound 0.01 µM). The relative viability with Doxorubicin + Linsitinib (first compound 0.03162 µM) turned out to be 0.889; with Doxorubicin + Linsitinib (first compound 0.1 µM) it was 0.959.
In the case of NCI-H650, the relative viability in the experiment with BAY61-3606 + Luminespib (first compound 0.02 µM) stood at 0.925; with BAY61-3606 + Luminespib (first compound 0.06325 µM), 0.751; with BAY61-3606 + Luminespib (first compound 0.2 µM) it was 0.766; with BAY61-3606 + Luminespib (first compound 0.6325 µM), 0.927; with BAY61-3606 + Luminespib (first compound 2 µM), 0.652; in the experiment with BAY61-3606 + Decitabine (first compound 0.02 µM), 0.358. The relative viability was found to be 0.302 with BAY61-3606 + Decitabine (first compound 0.06325 µM); 0.338 in the experiment with BAY61-3606 + Decitabine (first compound 0.2 µM); 0.385 with BAY61-3606 + Decitabine (first compound 0.6325 µM); 0.301 in the experiment with BAY61-3606 + Decitabine (first compound 2 µM); 0.435 in the experiment with BAY61-3606 + Phenformin (first compound 0.02 µM); 0.42 with BAY61-3606 + Phenformin (first compound 0.06325 µM). Besides, the relative viability with BAY61-3606 + Phenformin (first compound 0.2 µM) stood at 0.375; with BAY61-3606 + Phenformin (first compound 0.6325 µM) it was 0.428; with BAY61-3606 + Phenformin (first compound 2 µM) it was 0.405; with Doxorubicin + Linsitinib (first compound 0.001 µM), 1.01; in the experiment with Doxorubicin + Linsitinib (first compound 0.003162 µM) it was 0.753; with Doxorubicin + Linsitinib (first compound 0.01 µM) it was 0.949. In addition, the figures for the relative viability with Doxorubicin + Linsitinib (first compound 0.03162 µM) and in the experiment with Doxorubicin + Linsitinib (first compound 0.1 µM) were 0.709 and 0.411, respectively.
NCI-H1666: the relative viability in the experiment with BAY61-3606 + Luminespib (first compound 0.02 µM) worked out at 1.12; with BAY61-3606 + Luminespib (first compound 0.06325 µM), 0.998; in the experiment with BAY61-3606 + Luminespib (first compound 0.2 µM), 1.13; with BAY61-3606 + Luminespib (first compound 0.6325 µM), 1.08; in the experiment with BAY61-3606 + Luminespib (first compound 2 µM), 1.05; with BAY61-3606 + Decitabine (first compound 0.02 µM) it was 0.784. For the same cell line, the relative viability with BAY61-3606 + Decitabine (first compound 0.06325 µM) was 0.655; with BAY61-3606 + Decitabine (first compound 0.2 µM), 0.658; with BAY61-3606 + Decitabine (first compound 0.6325 µM) it was 0.737; with BAY61-3606 + Decitabine (first compound 2 µM) it was 0.686; with BAY61-3606 + Phenformin (first compound 0.02 µM) it was 0.544; with BAY61-3606 + Phenformin (first compound 0.06325 µM), 0.538. The relative viability was found to be 0.524 with BAY61-3606 + Phenformin (first compound 0.2 µM); 0.531 in the experiment with BAY61-3606 + Phenformin (first compound 0.6325 µM); 0.491 with BAY61-3606 + Phenformin (first compound 2 µM); 0.803 with Doxorubicin + Linsitinib (first compound 0.001 µM); 0.762 with Doxorubicin + Linsitinib (first compound 0.003162 µM); 0.561 in the experiment with Doxorubicin + Linsitinib (first compound 0.01 µM). Besides, the relative viability was found to be 0.268 in the experiment with Doxorubicin + Linsitinib (first compound 0.03162 µM) and 0.285 with Doxorubicin + Linsitinib (first compound 0.1 µM).
Turning to NCI-H1792, the relative viability with BAY61-3606 + Luminespib (first compound 0.02 µM) worked out at 0.462; in the experiment with BAY61-3606 + Luminespib (first compound 0.06325 µM), 0.404; with BAY61-3606 + Luminespib (first compound 0.2 µM), 0.439; with BAY61-3606 + Luminespib (first compound 0.6325 µM), 0.581; with BAY61-3606 + Luminespib (first compound 2 µM) it was 0.274; with BAY61-3606 + Decitabine (first compound 0.02 µM), 0.605. In addition, the relative viability with BAY61-3606 + Decitabine (first compound 0.06325 µM) turned out to be 0.572; with BAY61-3606 + Decitabine (first compound 0.2 µM) it was 0.547; with BAY61-3606 + Decitabine (first compound 0.6325 µM), 0.617; with BAY61-3606 + Decitabine (first compound 2 µM), 0.493; with BAY61-3606 + Phenformin (first compound 0.02 µM), 0.37; in the experiment with BAY61-3606 + Phenformin (first compound 0.2 µM), 0.336. For the same cell line, the relative viability in the experiment with BAY61-3606 + Phenformin (first compound 0.6325 µM) stood at 0.544; with BAY61-3606 + Phenformin (first compound 2 µM), 0.333; in the experiment with Doxorubicin + Linsitinib (first compound 0.001 µM) it was 0.563; with Doxorubicin + Linsitinib (first compound 0.003162 µM), 0.612; in the experiment with Doxorubicin + Linsitinib (first compound 0.01 µM), 0.543; with Doxorubicin + Linsitinib (first compound 0.03162 µM), 0.455. The relative viability with Doxorubicin + Linsitinib (first compound 0.1 µM) turned out to be 0.474.
Turning to PC-3 [JPC-3], the relative viability in the experiment with BAY61-3606 + Luminespib (first compound 0.06325 µM) is 0.81; with BAY61-3606 + Luminespib (first compound 0.2 µM), 0.746; in the experiment with BAY61-3606 + Luminespib (first compound 0.6325 µM), 0.659; with BAY61-3606 + Luminespib (first compound 2 µM), 0.709; with BAY61-3606 + Decitabine (first compound 0.02 µM) it was 0.822; with BAY61-3606 + Decitabine (first compound 0.06325 µM), 0.711. Further, the relative viability is 0.848 in the experiment with BAY61-3606 + Decitabine (first compound 0.2 µM); 0.947 with BAY61-3606 + Decitabine (first compound 0.6325 µM); 0.781 with BAY61-3606 + Decitabine (first compound 2 µM); 0.491 in the experiment with BAY61-3606 + Phenformin (first compound 0.06325 µM); 0.476 with BAY61-3606 + Phenformin (first compound 0.2 µM); 0.454 with BAY61-3606 + Phenformin (first compound 0.6325 µM). Also, the relative viability is 0.463 with BAY61-3606 + Phenformin (first compound 2 µM); 1.01 in the experiment with Doxorubicin + Linsitinib (first compound 0.001 µM); 0.992 in the experiment with Doxorubicin + Linsitinib (first compound 0.003162 µM); 0.94 with Doxorubicin + Linsitinib (first compound 0.01 µM); 0.907 in the experiment with Doxorubicin + Linsitinib (first compound 0.03162 µM); 0.901 with Doxorubicin + Linsitinib (first compound 0.1 µM).
Regarding HARA, the relative viability with BAY61-3606 + Luminespib (first compound 0.02 µM) is 0.672; with BAY61-3606 + Luminespib (first compound 0.06325 µM) it was 0.462; with BAY61-3606 + Luminespib (first compound 0.2 µM) it was 0.681; with BAY61-3606 + Luminespib (first compound 0.6325 µM), 0.682; in the experiment with BAY61-3606 + Luminespib (first compound 2 µM), 0.352; in the experiment with BAY61-3606 + Decitabine (first compound 0.02 µM) it was 0.515. The relative viability amounted to 0.512 with BAY61-3606 + Decitabine (first compound 0.06325 µM); 0.67 with BAY61-3606 + Decitabine (first compound 0.2 µM); 0.688 with BAY61-3606 + Decitabine (first compound 0.6325 µM); 0.585 in the experiment with BAY61-3606 + Decitabine (first compound 2 µM); 0.433 with BAY61-3606 + Phenformin (first compound 0.02 µM); 0.35 with BAY61-3606 + Phenformin (first compound 0.06325 µM). In addition, the relative viability worked out at 0.432 with BAY61-3606 + Phenformin (first compound 0.2 µM); 0.494 in the experiment with BAY61-3606 + Phenformin (first compound 0.6325 µM); 0.369 with BAY61-3606 + Phenformin (first compound 2 µM); 0.974 in the experiment with Doxorubicin + Linsitinib (first compound 0.001 µM); 1.03 with Doxorubicin + Linsitinib (first compound 0.003162 µM); 0.922 with Doxorubicin + Linsitinib (first compound 0.01 µM). The results for the relative viability with Doxorubicin + Linsitinib (first compound 0.03162 µM) and in the experiment with Doxorubicin + Linsitinib (first compound 0.1 µM) were 0.798 and 1.04, respectively.
